Patent publication US8383642B2, “Spiropiperidine compounds” (Eli Lilly and Company, priority 2009, dated 2013)

Assays:
[1] = system: Min6 cells; experiment: Glucose Dependent Insulin Secretion (GDIS) assay, insulinoma cell line Min6; type: cell-based, mouse; conditions: 1 μM plus 25 mM glucose compared to 25 mM glucose alone; 2 h
Procedure: (§1) Because activation of GPR40 is known to result in insulin secretion which is dependent on high glucose concentrations, two separate assay systems (insulinoma cell line and primary rodent islets) are developed to further characterize compounds that are known to increase intracellular calcium in the GPR40 primary assay discussed above.
GDIS assays are performed using the mouse insulinoma cell line Min6. Min6 cells are maintained in Dulbecco's Modified Eagle's Medium (DMEM) containing non-essential amino acids, 10% FBS, […] 2-mercaptoethanol and 1% penicillin and streptomycin at 37° C. plus 5% CO2. On the day of the experiment, the cells are washed twice with 200 μl of pre-warmed Krebs-ringer buffer without glucose. Addition of 200 μL of pre-warmed Krebs-ringer buffer containing 2.5 mM glucose is used to starve the cells followed by the addition of compounds in the presence of a high concentration of glucose (25 mM). The plate is incubated at 37° C. for 2 hours. At the end of the 2 h incubation, the supernatant is gently transferred into a Millipore filter plate and spun at 200 g (gravitational force) for 3 minutes. Insulin is assayed using a Mercodia Insulin estimation kit.

[2] = target: T1, PPARγ (Homo sapiens, UniProt P37231); experiment: PPARγ reporter functional assay (CTF); type: cell-based; conditions: examined up to 10 μM; CV1 cells; luciferase
T1 sequence (P37231 1-505): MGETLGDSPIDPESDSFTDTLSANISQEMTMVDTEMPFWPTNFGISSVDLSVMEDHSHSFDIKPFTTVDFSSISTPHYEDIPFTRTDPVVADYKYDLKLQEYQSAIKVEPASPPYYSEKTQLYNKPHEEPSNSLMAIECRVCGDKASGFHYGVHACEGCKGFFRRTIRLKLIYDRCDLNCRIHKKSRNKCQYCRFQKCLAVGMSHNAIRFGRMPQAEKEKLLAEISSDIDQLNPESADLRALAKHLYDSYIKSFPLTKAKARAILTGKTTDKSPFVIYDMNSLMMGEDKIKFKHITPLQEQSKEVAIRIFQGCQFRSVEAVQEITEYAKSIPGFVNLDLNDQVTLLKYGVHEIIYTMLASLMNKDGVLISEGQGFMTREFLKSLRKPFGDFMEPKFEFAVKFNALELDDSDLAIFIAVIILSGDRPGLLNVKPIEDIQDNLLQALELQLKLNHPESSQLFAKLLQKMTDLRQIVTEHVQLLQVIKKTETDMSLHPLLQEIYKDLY
T1 sequence (P19793 1-462 partner): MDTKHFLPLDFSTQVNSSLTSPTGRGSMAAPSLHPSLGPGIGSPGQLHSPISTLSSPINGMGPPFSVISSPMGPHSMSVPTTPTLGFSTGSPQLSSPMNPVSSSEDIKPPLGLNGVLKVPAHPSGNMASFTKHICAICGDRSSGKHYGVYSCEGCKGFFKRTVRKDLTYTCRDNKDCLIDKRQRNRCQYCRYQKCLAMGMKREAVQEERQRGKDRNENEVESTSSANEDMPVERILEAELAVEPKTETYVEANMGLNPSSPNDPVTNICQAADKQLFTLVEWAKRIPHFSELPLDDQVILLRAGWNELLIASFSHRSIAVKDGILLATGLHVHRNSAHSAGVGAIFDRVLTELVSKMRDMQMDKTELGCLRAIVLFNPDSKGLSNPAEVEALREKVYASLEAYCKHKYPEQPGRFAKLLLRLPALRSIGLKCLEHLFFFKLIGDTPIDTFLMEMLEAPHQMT
Text: (§2) Gal4 PPARα, Gal4 PPARδ, and PPARγ reporter functional assays are also used to monitor the selectivity of exemplified compounds. CV1 cells, which are derived from the renal tissue of an African green monkey, are transfected with various receptor and reporter plasmids using Fugene. For the Gal4 PPARα and PPARδ assays, a reporter plasmid containing five tandem copies of the yeast transcription protein Gal4 response element, cloned upstream of a firefly luciferase gene driven by the major late promoter of adenovirus, is transfected together with a Simian Virus 40 (SV40) driven plasmid constitutively expressing a hybrid protein containing the Gal4 DNA binding domain (DBD), and either the PPARα or PPARδ ligand binding. For the PPARγ assay, plasmids encoding PPARγ and RXRα, both driven by a cytomegalovirus (CMV) promoter are transfected together with a plasmid containing luciferase reporter cDNA driven by the TK promoter and a receptor response element (2×PPRE). Cells are transfected in T225 cm^2 cell culture flasks in DMEM media with 5% charcoal-stripped FBS. […] After 24 hours incubation with compounds, cells are lysed and luciferase activity is determined as a measure of receptor activation by luminescence. […] The maximum percent stimulation is determined versus maximum stimulation obtained with 10 μM of an appropriate PPAR agonist reference compound. […]

[3] = target: T2, Gal4 PPARα (Homo sapiens, UniProt Q07869); experiment: Gal4 PPARα reporter functional assay (CTF); type: cell-based; conditions: examined up to 10 μM; CV1 cells; luciferase
T2 construct: expressed in transfected cells; host or cells: CV1 (African green monkey kidney)
T2 sequence (Q07869 239-466 limits assumed): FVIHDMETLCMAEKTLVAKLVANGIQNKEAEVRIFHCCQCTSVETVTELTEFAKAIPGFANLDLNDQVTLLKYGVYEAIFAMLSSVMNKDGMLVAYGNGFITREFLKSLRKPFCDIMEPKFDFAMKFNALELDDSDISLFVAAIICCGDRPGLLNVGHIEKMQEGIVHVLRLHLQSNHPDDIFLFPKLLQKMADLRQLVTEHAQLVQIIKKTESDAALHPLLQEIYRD
Text: as §2

[4] = system: pancreatic islets; experiment: GDIS assay, primary rodent pancreatic islets of Langerhans; type: cell-based; conditions: different concentrations; compared to 11.2 mM glucose alone; 90 minutes; SD rat islets
Text: as §1
GDIS assays using primary rodent pancreatic islets of Langerhans are also used to characterize exemplified compounds. Pancreatic islets are isolated from male SD (Sprague Dawley) rats by collagenase digestion and Histopaque density gradient separation. The islets are cultured overnight in RPMI-1640 medium with GlutaMAXn (stabilized, dipeptide form of L-glutamine (Invitrogen catalog #61870-010)) to facilitate recovery from the isolation process. Insulin secretion is determined by a 90 minute incubation in EBSS (Earle's Balances Salt Solution) buffer in a 48-well plate. Briefly, islets are first preincubated in EBSS with 2.8 mM glucose for 30 min and are then transferred to a 48-well plate (four islets/well) containing 150 μl 2.8 mM glucose and incubated with 150 μl of EBSS with 2.8 or 11.2 mM glucose in the presence or absence of test compounds for 90 minutes. The buffer is removed from the wells at the end of the incubation and assayed for insulin levels using the Rat Insulin ELISA kit (Mercodia). […]

Structure (SMILES): CC#C[C@@H](CC(=O)O)c1ccc(OCc2ccc(CN3CCC4(C=Cc5ccccc54)CC3)cc2)cc1 [Example 1, (3S)-3-(4-{[4-(1′H-Spiro[indene-1,4′-piperidin]-1′-ylmethyl)benzyl]oxy}phenyl)hex-4-ynoic acid]
- increase in insulin secretion [1]: two-fold increase
- functional activation [2]: No functional activation
- functional activation [3]: No functional activation
- increase in insulin [4]: 2- to 4 fold
